Measured values as given in PMC6403800 (Polymers, 2018).
Like-named read-outs stand apart in the source and are kept apart here. Peptide text beside a SMILES is read from it.

Tests used:
[1] = target: T1, α-hemolysin (α-HL) nanopore (Staphylococcus aureus, UniProt P09616)
[2] = target: T1, α-hemolysin (α-HL) nanopore; assay: biochemical; type: binding; details: for kon: extrapolated to ΔV→0 by fit kon(ΔV)=kon(0)exp(aΔV)

T1 sequence (P09616 27-319 limits assumed): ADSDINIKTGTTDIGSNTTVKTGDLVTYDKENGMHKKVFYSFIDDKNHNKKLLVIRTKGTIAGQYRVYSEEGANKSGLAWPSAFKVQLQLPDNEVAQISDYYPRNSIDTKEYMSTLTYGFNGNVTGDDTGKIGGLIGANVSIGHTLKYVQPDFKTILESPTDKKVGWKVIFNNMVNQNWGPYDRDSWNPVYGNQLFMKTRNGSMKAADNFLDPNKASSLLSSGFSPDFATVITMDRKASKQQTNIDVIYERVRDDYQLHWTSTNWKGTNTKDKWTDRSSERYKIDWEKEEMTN

Molecule	relative blockade extent ΔIblock,1/Iopen (residual current I1) ([1]; deeper blockade sub-state I1, Fig. 1: 20 µM trans-added, ΔV = +100 mV, 2 M KCl, 10 mM HEPES, pH 7, ~23 °C, kind of spread not stated)	relative blockade extent ΔIblock,2/Iopen (residual current I2) ([1]; shallower blockade sub-state I2, Fig. 1: 20 µM trans-added, ΔV = +100 mV, 2 M KCl, 10 mM HEPES, pH 7, ~23 °C, kind of spread not stated)	dissociation rate, cis vs trans entry with preserved axial orientation, in words ([2]; at +ΔV (Figure 7a,d) and at −ΔV (Figure 7b,c), 30 μM)	dissociation, comparison of polarity in words ([2]; cis-added, +ΔV vs −ΔV (Figure 7c,d), 30 μM)	association rates trans vs cis side, in words ([2]; high voltages (|ΔV| > 100 mV), 30 μM)	association rate kon, ranking by addition side and voltage polarity ([2]; high voltages (|ΔV| > 100 mV), 30 μM peptide, cis or trans addition)	kon ([2]; pH 7, read-out: near equilibrium association rate constant kon(0), cis-added, +ΔV, 30 μM peptide, 2 M KCl, 10 mM HEPES, pH 7, ~23 °C)	kon ([2]; pH 7, read-out: near equilibrium association rate constant kon(0), cis-added, −ΔV, 30 μM peptide, 2 M KCl, 10 mM HEPES, pH 7, ~23 °C)	kon ([2]; pH 7, read-out: near equilibrium association rate constant kon(0), trans-added, +ΔV, 30 μM peptide, 2 M KCl, 10 mM HEPES, pH 7, ~23 °C)	kon ([2]; pH 7, read-out: near equilibrium association rate constant kon(0), trans-added, −ΔV, 30 μM peptide, 2 M KCl, 10 mM HEPES, pH 7, ~23 °C)	dissociation rate constant koff, comparison of polarity in words ([2]; trans-added, +ΔV vs −ΔV (Figure 7a,b), 30 μM)	association rate constant kon, comparison in words ([2]; trans-added, Pe6 vs Pe4, voltage-dependent (Figure 4a,c), 2 M KCl, 10 mM HEPES, pH 7, ~23 °C)	trapping time inside α-HL, comparison in words ([2]; trans-added, as the positive voltage increases (+80, +90, +100 mV), Pe6 vs Pe4, 2 M KCl, pH 7)	association rate, comparison of polarity in words ([2]; trans-added, relatively low transmembrane potential values (Figure 6a,b insets), 30 μM)	near equilibrium kon(0), ranking by addition side and voltage polarity ([2]; ΔV→0, cis or trans addition, 30 μM peptide)	relative blockade extent ΔIblock,1/Iopen, comparison in words [1]	relative blockade extent ΔIblock,1/Iopen (residual current I1) ([1]; pH 7)	relative blockade extent ΔIblock,2/Iopen (residual current I2) ([1]; pH 7)	dissociation rate constant koff, comparison in words ([2]; pH 7)
CC(=O)N[C@@H](CCCNC(=N)N)C(=O)N[C@@H](CCCNC(=N)N)C(=O)N[C@@H](CCCNC(=N)N)C(=O)N[C@@H](CCCNC(=N)N)C(=O)N[C@@H](CCCNC(=N)N)C(=O)N[C@@H](CCCNC(=N)N)C(=O)N[C@@H](CCCNC(=N)N)C(=O)N[C@@H](CCCNC(=N)N)C(=O)N[C@@H](CCCNC(=N)N)C(=O)N[C@@H](CCCNC(=N)N)C(=O)N[C@@H](CCCNC(=N)N)C(=O)N[C@@H](CCCNC(=N)N)C(=O)N[C@@H](CO)C(=O)N[C@@H](CO)C(=O)N[C@@H](CO)C(=O)N[C@@H](CO)C(=O)N[C@@H](CO)C(=O)N[C@@H](CO)C(=O)N[C@@H](CCC(=O)O)C(=O)N[C@@H](CCC(=O)O)C(=O)N[C@@H](CCC(=O)O)C(=O)N[C@@H](CCC(=O)O)C(=O)N[C@@H](CCC(=O)O)C(=O)N[C@@H](CCC(=O)O)C(=O)N[C@@H](CCC(=O)O)C(=O)N[C@@H](CCC(=O)O)C(=O)N[C@@H](CCC(=O)O)C(=O)N[C@@H](CCC(=O)O)C(=O)N[C@@H](CCC(=O)O)C(=O)N[C@@H](CCC(=O)O)C(N)=O [Pe6, Ac–(R)12–(S)6–(E)12–NH2] (Ac-RRRRRRRRRRRRSSSSSSEEEEEEEEEEEE-NH2)	0.91 ± 0.003	0.83 ± 0.002	within the same order of magnitude	dissociates faster at +ΔVs (Figure 7d) than −ΔVs	the association rates from the trans side are, in general, larger than peptide association from the cis side	koncis;−ΔV<koncis;+ΔV<kontrans;+ΔV<kontrans;−ΔV	63 ± 35.1 M⁻¹ s⁻¹	26.1 ± 8.9 M⁻¹ s⁻¹	83500 M⁻¹ s⁻¹	1200 M⁻¹ s⁻¹	larger at +ΔVs than at −ΔVs	almost one order of magnitude larger than that of the isoleucine-containing peptide (Pe4)	being trapped longer than Pe4 peptide inside the α-HL, as the voltage increases	associate faster to the nanopore at +ΔVs (Figure 6a, inset) than −ΔV s	koncis;−ΔV(0)<koncis;+ΔV(0)<kontrans;−ΔV(0)<kontrans;+ΔV(0)				
Ac–(R)12–(I)6–(E)12–NH2 [Pe4]																slightly higher extent of relative blockade	0.93 ± 5.1 × 10^−4	0.83 ± 0.004	slightly faster dissociation step
